Results as given in patent US20230024108A1, “ADENOSINE A2A RECEPTOR ANTAGONISTS” (Teon Therapeutics, Inc., priority 2019, published 2023).
Where a name gives a salt, the structure may show the parent alone.

What was measured:
human A2A AdoR = target: T1, human A2A AdoR (Homo sapiens, UniProt P29274); assay: Adenosine receptor binding assay, A2A ([3H]-CGS-21680); details: membranes of HEK-293 cells expressing human A2A AdoR; read-out: hA2A IC50
T1 construct: purchased PerkinElmer RBHA2AM400UA
Experimental: (§1) Membranes prepared from CHO-K1 cells stably expressing Human AiAdoR (ES-010-M400UA), HEK-293 cells stably expressing human A2A AdoR (RBHA2AM400UA), HEK-293 cells stably expressing human A2B AdoR (ES-013-M400UA) and CHO-K1 cells stably expressing Human A3 AdoR (ES-012-M400UA) were purchased from PerkinElmer (Waltham, Mass., USA) and stored at −80° C. until use. Binding assays are performed using the radioligands. The final concentrations are as follows: [3H]-DPCPX (PerkinElmer, NET974001MC) at 1 nM for A1AdoR; [^3H]-CGS-21680 (PerkinElmer, NET1021250UC) at 6 nM for A2AAdoR, [3H]-DPCPX (PerkinElmer, NET974001MC) at 8 nM for A2BAdoR; [^3H]-HEMADO (ARC, Cat: ART1456) at 1 nM for A3AdoR. Testing compounds are diluted with DMSO to make 8-point 4-fold serial dilution. Nonspecific binding (Low control: LC) and total binding (High control: HC) are determined in the presence or absence of saturated cold ligand. Specific binding is calculated by subtracting nonspecific binding from total binding. All assays are performed in a final volume of 200 μl containing 1 μl of the test compound in DMSO, 100 μl of membrane preparation, and 99 μl of the radioligand in assay buffer (A1AdoR: 25 mM HEPES pH 7.4, 5 mM MgCl2, 1 mM CaCl2), 100 mM NaCl; A2AAdoR: 50 mM Tris HCl pH 7.4, 10 mM MgCl2, 1 mM EDTA; A2BAdoR: 50 mM HEPES pH 7.0, 5 mM MgCl2, 1 mM EDTA; A3AdoR: 25 HEPES pH 7.4, 10 mM MgCl2, 1 mM CaCl2), 0.5% BSA). The incubation is performed at room temperature with shaking at 300 rpm for 1 hour for A1AdoR, A2BAdoR and A3AdoR and 2 hours for A2AAdoR. After the incubation, the assay mixture is filtered through 96 GF/C filter plates (Perkin Elmer #6005174) using Perkin Elmer Filtermate Harvester, and then washed four times with ice-cold washing buffer (A1AdoR: 25 mM HEPES pH 7.4, 5 mM MgCl2, 1 mM CaCl2), 100 mM NaCl; A2AAdoR: 50 mM Tris HCl pH 7.4, 154 mM NaCl; A2BAdoR: 50 mM HEPES pH 6.5, 5 mM MgCl2, 1 mM EDTA, 0.2% BSA; A3AdoR: 50 mM Tris HCl pH 7.4). The filters are dried for 1 hour at 50° C. and [^3H] trapped on filter counted for radioactivity in Perkin Elmer Microscint 20 cocktail (#6013329) using Perkin Elmer MicroBeta2 Reader. The results are expressed as a percent inhibition of the control radioligand specific binding calculated using the following equation: % Inhibition=(1−(Assay well-Average_LC)/(Average_HC−Average_LC))×100%. Data are analyzed and IC50 is calculated using GraphPad Prism 5 and the model “log(inhibitor) vs. response—Variable slope”. The binding affinity of the compounds is determined by using the Cheng and Prusoff equation Ki=IC50/(1+[radioligand]/Kd).

A1AdoR = target: T2, A1AdoR (Homo sapiens, UniProt P30542); assay: Adenosine receptor binding assay, A1 ([3H]-DPCPX); details: ratio A1 vs A2A binding
T2 construct: purchased PerkinElmer ES-010-M400UA
T2 sequence (P30542 1-326): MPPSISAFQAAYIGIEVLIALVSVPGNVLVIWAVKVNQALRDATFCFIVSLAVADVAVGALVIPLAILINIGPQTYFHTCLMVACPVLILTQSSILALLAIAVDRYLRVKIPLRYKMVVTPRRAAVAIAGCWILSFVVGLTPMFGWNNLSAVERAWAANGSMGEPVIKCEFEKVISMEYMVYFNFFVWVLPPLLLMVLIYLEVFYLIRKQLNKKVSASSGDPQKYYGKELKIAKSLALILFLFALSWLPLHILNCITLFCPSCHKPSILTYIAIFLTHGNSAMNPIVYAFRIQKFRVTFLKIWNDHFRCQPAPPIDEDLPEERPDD
Experimental: as §1

T1 sequence (P29274 whole entry): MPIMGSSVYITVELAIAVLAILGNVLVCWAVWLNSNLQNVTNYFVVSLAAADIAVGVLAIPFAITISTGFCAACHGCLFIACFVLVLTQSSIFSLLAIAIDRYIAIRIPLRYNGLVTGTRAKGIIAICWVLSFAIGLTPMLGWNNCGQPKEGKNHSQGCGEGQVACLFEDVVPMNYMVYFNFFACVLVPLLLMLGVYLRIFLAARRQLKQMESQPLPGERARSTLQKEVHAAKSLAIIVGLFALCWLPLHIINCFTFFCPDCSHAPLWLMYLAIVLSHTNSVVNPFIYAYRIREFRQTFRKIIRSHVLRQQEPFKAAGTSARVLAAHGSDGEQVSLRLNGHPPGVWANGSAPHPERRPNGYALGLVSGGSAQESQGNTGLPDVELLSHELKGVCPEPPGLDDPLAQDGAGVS

Compound	IC50 (human A2A AdoR)	A1/A2A Selectivity (A1AdoR)
Nc1nc2c(ncn2CCN2CCN(c3cc(-n4cccn4)ccc3F)CC2)c2nc(-c3ccccn3)nn12 [3-(2-(4-(2-fluoro-5-(1H-pyrazol-1-yl)phenyl)piperazin-1-yl)ethyl)-8-(pyridin-2-yl)-3H-[1,2,4]triazolo[5,1-i]purin-5-amine]	≤ 20 nM	b (greater than 100 but less than or equal to 1000)
CC#Cc1nc2c3ncn(CCN4CCc5ncc(-c6nccs6)cc5C4)c3nc(N)n2n1	≤ 20 nM	c (greater than 0 but less than or equal to 100)
Nc1nc2c(c(Cl)c(C(=O)O)n2CCN2CCN(c3cc(-c4ncco4)ccc3F)CC2)c2nc(-c3ccccn3)nn12 [5-amino-9-chloro-7-(2-(4-(2-fluoro-5-(oxazol-2-yl)phenyl)piperazin-1-yl)ethyl)-2-(pyridin-2-yl)-7H-pyrrolo[3,2-e][1,2,4]triazolo[1,5-c]pyrimidine-8-carboxylic acid]	≤ 20 nM	b (greater than 100 but less than or equal to 1000)
NC(=O)c1c(Cl)c2c(nc(N)n3nc(-c4ccccn4)nc23)n1CCN1CCN(c2cc(-c3ncco3)ccc2F)CC1 [5-amino-9-chloro-7-(2-(4-(2-fluoro-5-(oxazol-2-yl)phenyl)piperazin-1-yl)ethyl)-2-(pyridin-2-yl)-7H-pyrrolo[3,2-e][1,2,4]triazolo[1,5-c]pyrimidine-8-carboxamide]	≤ 20 nM	a (greater than 1000)
Cc1c(C(=O)O)n(CCN2CCN(c3ccc(F)cc3F)CC2)c2nc(N)n3nc(-c4ccccn4)nc3c12 [5-amino-7-(2-(4-(2,4-difluorophenyl)piperazin-1-yl)ethyl)-9-methyl-2-(pyridin-2-yl)-7H-pyrrolo[3,2-e][1,2,4]triazolo[1,5-c]pyrimidine-8-carboxylic acid]	≤ 20 nM	b (greater than 100 but less than or equal to 1000)
CC#Cc1nc2c3ncn(CCN4CCN(c5cc6c(C)noc6cc5F)CC4)c3nc(N)n2n1 [3-(2-(4-(6-fluoro-3-methylbenzo[d]isoxazol-5-yl)piperazin-1-yl)ethyl)-8-(prop-1-yn-1-yl)-3H-[1,2,4]triazolo[5,1-i]purin-5-amine]	≤ 20 nM	a (greater than 1000)
Cc1noc2cc(F)c(N3CCCN(CCn4c(C(N)=O)c(Cl)c5c4nc(N)n4nc(-c6ccccn6)nc54)CC3)cc12	≤ 20 nM	b (greater than 100 but less than or equal to 1000)
Cc1c(C(=O)O)n(CCN2CCCN(c3cc(-c4ncco4)ccc3F)CC2)c2nc(N)n3nc(-c4ccccn4)nc3c12 [5-amino-7-(2-(4-(2-fluoro-5-(oxazol-2-yl)phenyl)-1,4-diazepan-1-yl)ethyl)-9-methyl-2-(pyridin-2-yl)-7H-pyrrolo[3,2-e][1,2,4]triazolo[1,5-c]pyrimidine-8-carboxylic acid]	20 to 100 nM	c (greater than 0 but less than or equal to 100)
Nc1nc2c(ncn2CCN2CCc3ncc(-c4nccs4)cc3C2)c2nc(-c3ccccn3)nn12	≤ 20 nM	c (greater than 0 but less than or equal to 100)
Nc1nc2c(c(Cl)c(C(=O)O)n2CCN2CCN(c3ccncc3)CC2)c2nc(-c3ccccn3)nn12 [5-amino-9-chloro-2-(pyridin-2-yl)-7-(2-(4-(pyridin-4-yl)piperazin-1-yl)ethyl)-7H-pyrrolo[3,2-e][1,2,4]triazolo[1,5-c]pyrimidine-8-carboxylic acid]	20 to 100 nM	b (greater than 100 but less than or equal to 1000)
CC#Cc1nc2c3ncn(CCN4CCc5ncc(C6COC6)cc5C4)c3nc(N)n2n1	20 to 100 nM	b (greater than 100 but less than or equal to 1000)
Cc1c(C(=O)O)n(CCN2CCN(c3ccncc3)CC2)c2nc(N)n3nc(-c4ccccn4)nc3c12	20 to 100 nM	c (greater than 0 but less than or equal to 100)

Continued, in another order:

IC50 (human A2A AdoR)	Compound	A1/A2A Selectivity (A1AdoR)
≤ 20 nM	N#Cc1ccc(N2CCN(CCn3c(C(N)=O)c(Cl)c4c3nc(N)n3nc(-c5ccccn5)nc43)CC2)c(F)c1 [5-amino-9-chloro-7-(2-(4-(4-cyano-2-fluorophenyl)piperazin-1-yl)ethyl)-2-(pyridin-2-yl)-7H-pyrrolo[3,2-e][1,2,4]triazolo[1,5-c]pyrimidine-8-carboxamide]	a (greater than 1000)
≤ 20 nM	Cc1cn(CCN2CCCN(c3cc(-c4ncco4)ccc3F)CC2)c2nc(N)n3nc(-c4ccccn4)nc3c12 [7-(2-(4-(2-fluoro-5-(oxazol-2-yl)phenyl)-1,4-diazepan-1-yl)ethyl)-9-methyl-2-(pyridin-2-yl)-7H-pyrrolo[3,2-e][1,2,4]triazolo[1,5-c]pyrimidin-5-amine]	c (greater than 0 but less than or equal to 100)
≤ 20 nM	Cc1cc(N2CCN(CCn3c(C(=O)O)c(Cl)c4c3nc(N)n3nc(-c5ccccn5)nc43)CC2)c(F)cn1 [5-amino-9-chloro-7-(2-(4-(5-fluoro-2-methylpyridin-4-yl)piperazin-1-yl)ethyl)-2-(pyridin-2-yl)-7H-pyrrolo[3,2-e][1,2,4]triazolo[1,5-c]pyrimidine-8-carboxylic acid]	a (greater than 1000)
≤ 20 nM	Cc1noc2cc(F)c(N3CCN(CCn4c(OC=O)c(Cl)c5c4nc(N)n4nc(-c6ccccn6)nc54)CC3)cc12 [5-amino-9-chloro-7-(2-(4-(6-fluoro-3-methylbenzo[d]isoxazol-5-yl)piperazin-1-yl)ethyl)-2-(pyridin-2-yl)-7H-pyrrolo[3,2-e][1,2,4]triazolo[1,5-c]pyrimidin-8-yl formate]	a (greater than 1000)
≤ 20 nM	Cc1cc(N2CCN(CCn3c(C(N)=O)c(Cl)c4c3nc(N)n3nc(-c5ccccn5)nc43)CC2)c(F)cn1 [5-amino-9-chloro-7-(2-(4-(5-fluoro-2-methylpyridin-4-yl)piperazin-1-yl)ethyl)-2-(pyridin-2-yl)-7H-pyrrolo[3,2-e][1,2,4]triazolo[1,5-c]pyrimidine-8-carboxamide]	c (greater than 0 but less than or equal to 100)
≤ 20 nM	Nc1nc2c(ncn2CCN2CCN(c3cc(-c4ncco4)ccc3F)CC2)c2nc(C#CC3CC3)nn12 [8-(cyclopropylethynyl)-3-(2-(4-(2-fluoro-5-(oxazol-2-yl)phenyl)piperazin-1-yl)ethyl)-3H-[1,2,4]triazolo[5,1-i]purin-5-amine]	b (greater than 100 but less than or equal to 1000)
> 100 nM	Cc1noc2cc(F)c(N3CCCN(CCn4c(C(=O)O)c(Cl)c5c4nc(N)n4nc(-c6ccccn6)nc54)CC3)cc12 [5-amino-9-chloro-7-(2-(4-(6-fluoro-3-methylbenzo[d]isoxazol-5-yl)-1,4-diazepan-1-yl)ethyl)-2-(pyridin-2-yl)-7H-pyrrolo[3,2-e][1,2,4]triazolo[1,5-c]pyrimidine-8-carboxylic acid]	c (greater than 0 but less than or equal to 100)
≤ 20 nM	Cc1c(C(N)=O)n(CCN2CCN(c3ncccn3)CC2)c2nc(N)n3nc(-c4ccccn4)nc3c12 [5-amino-9-methyl-2-(pyridin-2-yl)-7-(2-(4-(pyrimidin-2-yl)piperazin-1-yl)ethyl)-7H-pyrrolo[3,2-e][1,2,4]triazolo[1,5-c]pyrimidine-8-carboxamide]	b (greater than 100 but less than or equal to 1000)
